Measured values published in the supplement of paper PMC10627819.

How the values were obtained:
Assay in all cases: fitness (endpoint OD595 vs no drug) (fraction); higher = more growth
S. pneumoniae D39V = test system: S. pneumoniae D39V
Method in brief: (§1)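 Fitness compares growth at the stationary-phase transition with the robust mean of no-drug control wells, as a ratio of optical densities. The ratio is capped at 1. Wells of 384-well plates held 30 µl, or 55 µl for S. pneumoniae, inoculated at OD595 0.01. Readings at OD595 every 30 min for 14 h at 37 °C were corrected against the first reading.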

S. aureus Newman = test system: S. aureus Newman
Method in brief: as §1

B. subtilis 168 = test system: B. subtilis 168
Method in brief: as §1
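Note: OD595 on entry to stationary phase over no-drug wells; at most 1.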

O=C(O)[C@H]1/C(=C/CO)O[C@@H]2CC(=O)N21 [Clavulanic acid] + CN[C@H](CC(C)C)C(=O)N[C@H]1C(=O)N[C@@H](CC(N)=O)C(=O)N[C@H]2C(=O)N[C@H]3C(=O)N[C@H](C(=O)N[C@H](C(=O)O)c4cc(O)cc(O)c4-c4cc3ccc4O)[C@H](O)c3ccc(c(Cl)c3)Oc3cc2cc(c3O[C@@H]2O[C@H](CO)[C@@H](O)[C@H](O)[C@H]2O[C@H]2C[C@](C)(N)[C@H](O)[C@H](C)O2)Oc2ccc(cc2Cl)[C@H]1O [Vancomycin]
fitness, S. pneumoniae D39V
Settings	partner 0.03125 µg/mL	partner 0.0625 µg/mL	partner 0.125 µg/mL	partner 0.25 µg/mL	partner 0.5 µg/mL
first compound 0.5 µg/mL	0.984	0.917	0.875	0.0377	0.0441
first compound 1 µg/mL	0.907	0.889	0.868	0.189	0.179
first compound 2 µg/mL	0.811	0.779	0.751	0.0611	0.078

fitness, S. aureus Newman, one replicate
Settings	first compound 0.03125 µg/mL	first compound 0.0625 µg/mL	first compound 0.125 µg/mL
partner 0.1875 µg/mL	0.974	≥ 1	0.936
partner 0.375 µg/mL	0.975	≥ 1	0.923
partner 0.75 µg/mL	0.974	≥ 1	0.981

O=C(O)[C@H]1/C(=C/CO)O[C@@H]2CC(=O)N21 [Clavulanic acid] + CO/N=C(\C(=O)N[C@@H]1C(=O)N2C(C(=O)[O-])=C(C[N+]3(C)CCCC3)CS[C@H]12)c1csc(N)n1 [Cefepime]
fitness, S. pneumoniae D39V
Settings	partner 0.007 µg/mL	partner 0.0078 µg/mL	partner 0.014 µg/mL	partner 0.0155 µg/mL	partner 0.028 µg/mL	partner 0.031 µg/mL
first compound 0.5 µg/mL	0.996	0.997	0.997	0.957	0.885	0.501
first compound 1 µg/mL	0.991	0.955	0.988	0.91	0.817	0.456
first compound 2 µg/mL	0.902	0.778	0.904	0.681	0.633	0.199

fitness, S. aureus Newman, one replicate
Settings	first compound 0.03125 µg/mL	first compound 0.0625 µg/mL	first compound 0.125 µg/mL
partner 0.125 µg/mL	0.965	0.94	0.881
partner 0.25 µg/mL	0.943	0.914	0.884
partner 0.5 µg/mL	0.946	0.871	0.869

O=C(O)[C@H]1/C(=C/CO)O[C@@H]2CC(=O)N21 [Clavulanic acid] + CO[C@@]12[C@H](COC(N)=O)C3=C(C(=O)C(C)=C(N)C3=O)N1C[C@@H]1N[C@@H]12 [Mitomycin C]
fitness, S. pneumoniae D39V
Settings	partner 0.001075 µg/mL	partner 0.00215 µg/mL	partner 0.004 µg/mL	partner 0.0043 µg/mL	partner 0.008 µg/mL
first compound 0.5 µg/mL	0.951	0.885	0.642	0.772	0.324
first compound 1 µg/mL	0.896	0.873	0.586	0.766	0.369
first compound 2 µg/mL	0.838	0.791	0.385	0.696	0.201

fitness, S. aureus Newman, one replicate
Settings	first compound 0.03125 µg/mL	first compound 0.0625 µg/mL	first compound 0.125 µg/mL
partner 0.0156 µg/mL	0.757	0.748	0.721
partner 0.0312 µg/mL	0.549	0.568	0.601
partner 0.0625 µg/mL	0.48	0.495	0.51

O=C(O)[C@H]1/C(=C/CO)O[C@@H]2CC(=O)N21 [Clavulanic acid] + Cn1nnc(-c2ccc(-c3ccc(N4C[C@H](CO)OC4=O)cc3F)cn2)n1 [Tedizolid]
fitness, S. pneumoniae D39V
Settings	partner 0.03125 µg/mL	partner 0.0625 µg/mL	partner 0.125 µg/mL	partner 0.25 µg/mL	partner 0.5 µg/mL
first compound 0.5 µg/mL	0.953	0.943	0.693	0.261	0.0809
first compound 1 µg/mL	0.887	0.938	0.673	0.371	0.227
first compound 2 µg/mL	0.855	0.901	0.581	0.262	0.0776

fitness, S. aureus Newman, one replicate
Settings	first compound 0.03125 µg/mL	first compound 0.0625 µg/mL	first compound 0.125 µg/mL
partner 0.0625 µg/mL	0.827	0.837	0.868
partner 0.125 µg/mL	0.498	0.509	0.523
partner 0.25 µg/mL	0.0634	0.0552	0.0639

O=C(O)[C@H]1/C(=C/CO)O[C@@H]2CC(=O)N21 [Clavulanic acid] + N[C@@H]1CONC1=O [Cycloserine D]
fitness, B. subtilis 168
Settings	first compound 1.5 µg/mL	first compound 3 µg/mL	first compound 6 µg/mL
partner 0.125 µg/mL	0.903	0.909	0.792
partner 0.25 µg/mL	0.957	0.861	0.801
partner 0.5 µg/mL	0.946	0.915	0.832

fitness, S. aureus Newman, one replicate
Settings	first compound 0.03125 µg/mL	first compound 0.0625 µg/mL	first compound 0.125 µg/mL
partner 0.375 µg/mL	0.902	0.954	0.885
partner 0.75 µg/mL	0.884	0.942	0.888
partner 1.5 µg/mL	0.899	0.858	0.897

CNC(C)C1CCC(N)C(OC2C(N)CC(N)C(OC3OCC(C)(O)C(NC)C3O)C2O)O1 (configuration not stated) [Gentamicin] + CC1(C)S[C@@H]2[C@H](NC(=O)Cc3ccccc3)C(=O)N2[C@H]1C(=O)O [Penicillin G]
fitness, S. aureus Newman, main component drawn
Settings	first compound 0.375 µg/mL	first compound 0.5 µg/mL	first compound 0.75 µg/mL	first compound 1 µg/mL	first compound 1.5 µg/mL	first compound 2 µg/mL
partner 0.0195 µg/mL	0.836	0.901	0.82	0.937	0.865	0.98
partner 0.039 µg/mL	0.948	0.897	0.914	0.939	0.944	0.96
partner 0.078 µg/mL	0.944	0.842	0.925	0.886	0.918	0.924

CNC(C)C1CCC(N)C(OC2C(N)CC(N)C(OC3OCC(C)(O)C(NC)C3O)C2O)O1 (configuration not stated) [Gentamicin] + CO[C@@]12[C@H](COC(N)=O)C3=C(C(=O)C(C)=C(N)C3=O)N1C[C@@H]1N[C@@H]12 [Mitomycin C]
fitness, main component drawn
Settings	partner 0.001075 µg/mL	partner 0.002 µg/mL	partner 0.00215 µg/mL	partner 0.004 µg/mL	partner 0.0043 µg/mL	partner 0.008 µg/mL	partner 0.0156 µg/mL	partner 0.0312 µg/mL	partner 0.0625 µg/mL
S. aureus Newman, first compound 0.5 µg/mL	–	–	–	–	–	–	0.762	0.667	0.558
S. aureus Newman, first compound 1 µg/mL	–	–	–	–	–	–	0.797	0.698	0.601
S. aureus Newman, first compound 2 µg/mL	–	–	–	–	–	–	0.808	0.732	0.585
S. pneumoniae D39V, first compound 2 µg/mL	0.975	0.787	0.969	0.685	0.844	0.395	–	–	–
S. pneumoniae D39V, first compound 4 µg/mL	0.94	0.729	0.915	0.602	0.807	0.369	–	–	–
S. pneumoniae D39V, first compound 8 µg/mL	0.946	0.715	0.929	0.608	0.827	0.346	–	–	–

fitness, S. aureus Newman, one replicate, main component drawn
Settings	first compound 0.375 µg/mL	first compound 0.75 µg/mL	first compound 1.5 µg/mL
partner 0.0156 µg/mL	0.755	0.779	0.774
partner 0.0312 µg/mL	0.762	0.725	0.707
partner 0.0625 µg/mL	0.602	0.603	0.607

Cc1onc(-c2ccccc2)c1C(=O)N[C@@H]1C(=O)N2[C@@H]1SC(C)(C)[C@@H]2C(=O)O [Oxacillin] + CC1(C)S[C@@H]2[C@H](NC(=O)Cc3ccccc3)C(=O)N2[C@H]1C(=O)O [Penicillin G]
fitness, S. aureus Newman
Settings	partner 0.0195 µg/mL	partner 0.039 µg/mL	partner 0.078 µg/mL
first compound 0.0156 µg/mL	0.768	0.748	0.727
first compound 0.0312 µg/mL	0.659	0.688	0.66
